Laboratory results taken from patent publication US20080138397A1, “PROCESSES FOR TASTE-MASKING OF INHALED FORMULATIONS” (Aradigm Corporation, priority 2006, published 2008).

Legend:
[1] = oral administration; extensive clearance via first pass metabolism; cited from earlier work
[2] = cited from earlier work
[3] = Human clinical trials of AERx-inhaled HCQ, pharmacokinetics blood sample analysis; type: in vivo; conditions: blood samples
From the text: Hydroxychloroquine or HCQ, known as a therapeutic for asthma and other respiratory diseases (U.S. Pat. No. 6,572,858), and administered by the inhalation route, is characterized by unpleasant taste. Formulation of HCQ, either singularly, or in combination, using one or more of the methods described above increases the therapeutic benefit of inhaled HCQ to treat asthma and other respiratory diseases. […] Thus, it would be an improvement to develop a formulation that provides a sustained release of HCQ in the lung, prolonging interaction of HCQ with the desired receptors in the lung tissue. Formulation strategies include encapsulation in liposomes or use of polymeric microspheres or nanospheres that slowly degrade and release HCQ. Other formulation strategies outlined previously can also be envisioned for such a formulation.

Row | SMILES | oral bioavailability [1] | half-life ([2]; in vivo) [h] | absorption time ([2]; inhalation delivery) | tolerability ([2]; inhalation delivery) | absorption from the lung [3]
1 | CCCc1cc2c(s1)CN[C@@H]1CCc3cc(OC(C)=O)c(OC(C)=O)cc3[C@@H]21 [ABT-431] | less than 4% | 2 to 3 | less than 10 minutes | poor | 
2 | CCN(CCO)CCCC(C)Nc1ccnc2cc(Cl)ccc12 (centres unmarked) [HCQ, Hydroxychloroquine] |  |  |  |  | rapidly absorbed
